Read-outs that look alike come from different tables or passages of the source.
Experiments:
RIN14B cells = assay: Measurement of 5-HT secretion from RIN14B; type: cell-based; conditions: 20 minutes at 37° C., relative to 300 μM allyl isothiocyanate = 100%, HBSS only = 0%
Experimental: In order to investigate whether TRPA1 is related to 5-HT release, 5-HT secretion promotion from RIN14B by a compound to be tested was measured.
The RIN14B cells cultivated in a petri dish were scraped using Phosphate buffered saline (PBS) containing 1 mM EDTA, distributed into 24 well plates, and cultivated for 2 days. As a medium, a medium in which 10% fetal bovine serum (ICN), 100 U/mL penicillin, and 100 μg/mL streptomycin was added to RPMI1640 (Invitrogen), was used. The cells were washed once with HBSS (Invitrogen) and added with 0.1% BSA and 10 μM fluoxetine (TOCRIS Co.), followed by dilution with the above HBSS, the prepared compound to be tested was added to RIN14B cells, followed by cultivation at 37° C., under 5% CO2 condition for 20 minutes. After cultivation, supernatant of cells was recovered, followed by freeze preservation. The content of 5-HT in the supernatant was measured by a commercial serotonin immunoassay kit (Beckman). 5-HT release promotion activation value (%) was evaluated as a relative value when the 5-HT release promotion value by 300 μM of allyl isothiocyanate was defined as 100%, and the 5-HT release promotion value by HBSS for dilution only was defined as 0%.

Cytochrome P450(2D6) = Cytochrome P450(2D6) (Homo sapiens, UniProt P10635); assay: Cytochrome P450(2D6) enzyme inhibition test; type: in vitro ADME; conditions: CYP2D6, fluorescent substrate 1.5 μmol/L, 37° C., 20 minutes
Cytochrome P450(2D6), sequence (P10635 whole entry): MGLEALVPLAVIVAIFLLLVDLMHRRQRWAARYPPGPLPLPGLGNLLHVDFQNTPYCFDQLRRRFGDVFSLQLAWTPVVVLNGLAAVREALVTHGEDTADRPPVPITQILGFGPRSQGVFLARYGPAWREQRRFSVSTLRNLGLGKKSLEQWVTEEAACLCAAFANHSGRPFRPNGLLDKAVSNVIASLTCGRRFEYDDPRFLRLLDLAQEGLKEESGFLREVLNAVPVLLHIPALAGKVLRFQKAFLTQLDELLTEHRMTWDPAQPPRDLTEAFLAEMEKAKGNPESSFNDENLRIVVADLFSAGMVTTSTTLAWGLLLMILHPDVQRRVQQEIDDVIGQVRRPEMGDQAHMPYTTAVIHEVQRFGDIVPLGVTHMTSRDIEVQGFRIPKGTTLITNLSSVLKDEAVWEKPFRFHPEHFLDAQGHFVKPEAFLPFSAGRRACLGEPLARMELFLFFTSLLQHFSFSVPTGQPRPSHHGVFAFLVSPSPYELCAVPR
Experimental: The experiment was performed in accordance with the method of Crespi et al. (Analytical Biochemistry, 248, 188-190, 1997).
As a substrate, 3-[2-(N,N-diethyl-N-methylamino)ethyl]-7-methoxy-4-methyl coumarine (1.5 μmol/L) a compound to be tested (3.1×10^−7 to 2×10^−5 M) and an enzyme (2.5×10^−8 M) were incubated at 37° C. for 20 minutes in total of […] of 100 mM phosphorous buffer (pH=7.4) including 8.2 mM NADP+, 0.41 mM glucose-6-phosphate, 0.41 mM MgCl2 and 0.4 Units/mL glucose-6-phosphate dehydrogenase, using 96 well plates. Then, 0.5 M aqueous 2-amino-2-hydroxymethyl-1,3-propandiol solution containing 80% acetonitrile was added to stop the reaction, fluorescence intensity (excitation wavelength; 390 nm, fluorescent wavelength; 460 nm) was measured with a fluorescent plate reader. An inhibition ratio was calculated with the following formula, and the test compound concentration when the inhibition ratio is 50% (IC50) was obtained.
C1: fluorescence intensity in the presence of the test compound and enzyme at know concentrations, and the substrate
C0: fluorescence intensity in the presence of the enzyme and substrate, without the test compound
B1: fluorescence intensity of blank well

human TRPA1 = target: T1, human TRPA1 (Homo sapiens, UniProt O75762, K186N/R3C/R58T); assay: Measurement of TRPA1 activation activity (intracellular calcium, FLIPR, HEK293 cells stably expressing human TRPA1); type: cell-based; conditions: change of intracellular calcium concentration
T1 construct: expressed in transfected cells; pcDNA3.1(+) vector)
T1 sequence (O75762 whole entry R3C/R58T/K186N): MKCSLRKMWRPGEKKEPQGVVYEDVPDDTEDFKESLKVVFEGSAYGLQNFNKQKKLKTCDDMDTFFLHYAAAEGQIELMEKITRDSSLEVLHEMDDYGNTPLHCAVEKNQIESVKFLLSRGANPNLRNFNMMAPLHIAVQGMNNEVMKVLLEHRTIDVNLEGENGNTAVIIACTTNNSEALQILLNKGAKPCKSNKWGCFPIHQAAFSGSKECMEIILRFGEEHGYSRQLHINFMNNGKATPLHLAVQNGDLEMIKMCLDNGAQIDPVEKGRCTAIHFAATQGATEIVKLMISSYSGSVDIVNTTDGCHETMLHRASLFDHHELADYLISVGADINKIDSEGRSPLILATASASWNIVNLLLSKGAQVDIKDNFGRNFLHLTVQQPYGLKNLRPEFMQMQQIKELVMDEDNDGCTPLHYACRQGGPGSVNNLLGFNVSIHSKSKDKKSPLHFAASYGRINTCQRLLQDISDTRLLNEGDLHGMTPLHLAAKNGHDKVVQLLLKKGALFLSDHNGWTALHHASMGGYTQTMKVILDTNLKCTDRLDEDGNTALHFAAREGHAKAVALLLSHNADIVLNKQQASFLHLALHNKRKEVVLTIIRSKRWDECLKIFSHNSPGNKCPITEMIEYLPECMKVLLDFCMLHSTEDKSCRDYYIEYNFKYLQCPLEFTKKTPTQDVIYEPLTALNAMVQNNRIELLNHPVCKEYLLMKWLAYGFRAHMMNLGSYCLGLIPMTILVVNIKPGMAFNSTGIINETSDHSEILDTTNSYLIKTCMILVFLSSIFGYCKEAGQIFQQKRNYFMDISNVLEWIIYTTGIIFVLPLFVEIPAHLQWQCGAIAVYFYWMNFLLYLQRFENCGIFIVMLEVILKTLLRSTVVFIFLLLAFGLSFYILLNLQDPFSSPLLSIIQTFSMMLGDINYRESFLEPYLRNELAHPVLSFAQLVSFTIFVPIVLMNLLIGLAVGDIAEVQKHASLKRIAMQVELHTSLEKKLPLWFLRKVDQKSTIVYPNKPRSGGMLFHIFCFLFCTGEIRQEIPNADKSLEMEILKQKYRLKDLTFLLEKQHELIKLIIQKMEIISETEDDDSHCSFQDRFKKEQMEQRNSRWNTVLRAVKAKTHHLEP
Experimental: 10 ng of Human brain mRNA (Clontech Co.) was treated with DNase, and then was reverse transcribed using kit for reverse transcription-polymerase chain reaction (RT-PCR) (SUPERSCRIPT First-Strand Synthesis System for RT-PCR; Invitrogen Co.) to synthesize the first strand cDNA. PCR using a hot start method was performed using the first strand cDNA as a template and Taq DNA polymerase (LA Taq DNA polymerase; TAKARA SHUZO). The PCR was performed using oligonucleotides consisting of the nucleotide sequences, represented by sequence number 2 as a sense primer and sequence number 3 as an antisense primer, in which firstly, heat denaturation was performed at 98° C. (1 minute), and then a cycle of 98° C. (15 seconds)/56° C. (30 seconds)/72° C. (5 minutes) was repeated 35 times. As a result, a DNA fragment of about 3.3 kbp was amplified.
The DNA fragment was cloned to pCR-TOPO vector using a cloning kit (TOPO XL PCR Cloning Kit; Invitrogen). The obtained plasmid DNA was digested with restriction enzymes KpnI and HindIII, and then was cloned using plasmid pcDNA 3.1(+)(Invitrogen). In this connection, the plasmid pcDNA 3.1(+) has a promoter sequence derived from cytemegalovirus, and can be used in order to express a protein in animal cells.
The nucleotide sequences of the obtained clones were analyzed using DNA sequencer (ABI3700 DNA Sequencer; Applied Biosystems) by dideoxyterminator method, and the nucleotide sequence represented by sequence number 1 was obtained. Furthermore, when these sequences were translated to amino acid sequences, the amino acid sequence represented by sequence number 1 was obtained.
After constructing the expression vector of the human TRPA1 gene, selection by G418 was performed from the HEK293 cells which temporarily expressed TRPA1 by transfection operation to obtain cells stably expressing TRPA1. The above operation was performed according to known methods (experimental medicine supplementary volume, “Cultivation Cell Experimental Methods for Molecular Biology Study” published by Toshio Kuroki, Namho Hue and Kazuhiro Chida, 1995, Yodosha).
In order to measure the change of the intracellular calcium concentration in the cells stably expressing the human TRPA1, the change of the intracellular calcium concentration when a compound to be tested was added was measured using FLIPR (Molecular Device).
In order to measure the change of the intracellular calcium concentration with FLIPR, the following pretreatment was performed. First of all, assay buffer was prepared which was for adding fluorescent pigment Fluo4-AM (DOJIN) to the cells or washing the cells just before performing FLIPR assay. To a solution (hereinafter, HBSS/HEPES solution) where 20 mL of 1M HEPES (pH 7.4; Invitrogen) was added to 1000 mL of a physiological saline buffer (Hank's Balanced Salt Solution; HBSS) (Invitrogen), was added 10 mL of a solution where 710 mg of probenecid (Sigma) was dissolved into 5 mL of 1M aqueous NaOH solution and 5 mL of HBSS/HEPES solution was further added and mixed, and the assay buffer was thus prepared. Then, 50 μg of Fluo4-AM was dissolved into 22 μL of DMSO (DOJIN), the same amount of 20% pluronic acid (Molecular Probes) was added thereto and mixed, and the mixture was added to the 10.6 mL of the assay buffer where 105 μL of fetal bovine serum was added, to prepare a fluorescent pigment solution. The medium of the cells stably expressing TRPA1 was removed, 100 μL per well of the fluorescent pigment solution was dispensed immediately, followed by cultivation in a CO2 cultivator for 1 hour, and the fluorescent pigment was soaked in the cells. The cells after cultivation were washed using the assay buffer, followed by being set in FLIPR. Furthermore, a test sample, which was added to the cells stably expressing TRPA1, was prepared by using the assay buffer, and at the same time, was set in FLIPR. […]

gastric emptying of rats = assay: Activity to gastric emptying of TRPA1 agonist (phenol red, rats); type: in vivo; conditions: Rattus norvegicus, read-out: ED50 (amount which suppresses 50% of gastric emptying)
Excerpt: When EC cell is stimulated by content of a gastrointestinal tract, 5-HT is secreted. The secreted 5-HT promotes the secretion or motility through a 5-HT receptor present in intestinal nerve plexus or gastrointestinal smooth muscle. The secreted 5-HT is instantly taken into a cell by its specific transporter, and is metabolized by […]. Thus, while it is considerably difficult to directly measure the secreted 5-HT concentration, it has been known that gastric emptying is delayed as a physiological activity through 5-HT in rodents. In order to verify in vivo activity through 5-HT of the compound to be tested, activity to gastric emptying of rats by various TRPA1 agonists was studied.
In the experiment, male wistar rats (body weight 290 to 360 g) were used. The animals were purchased from Japan SLC (Shizuoka). The animals were allowed to drink water freely under a constitutive environment.
5 minutes after the medicine was orally administered, 0.05% phenol red solution (1.5 mL) was orally administered. After 15 minutes, rats were put painlessly to death by cervical vertebral dislocation, their stomachs were exenterated, and phenol red was eluted with 0.1M aqueous NaOH solution (5 mL) from the exenterated stomachs. 20% aqueous trichloroacetic acid solution (0.1 mL) was added to the NaOH solution (0.5 mL), followed by stirring and centrifugation at 15,000 rpm, at 4° C., for 10 minutes. 0.5M aqueous NaOH solution (0.2 mL) was added to the supernatant (0.05 mL), followed by stirring, and absorbance at 560 nm was measured using an absorption spectrometer (spectrometer spectramax M2; Molecular Devices, CA, USA).
A gastric emptying was calculated by the following calculating formula.
Gastric emptying (%)=100−(A/B)×100
A: amount of phenol red remaining in stomach
B: amount of phenol red remaining in stomach just after administering phenol red
ED50 values (amount of the compound to be tested which suppresses 50% of gastric emptying, with respect to the control animals without administering the compound to be tested) of some of the compounds of the formula (I) are shown in Table 2. In this connection, comparative compound 1 and comparative compound 2 are (3E)-1-methyl-3-(2-oxopropyridene)-1,3-dihydro-2H-indol-2-one, and (3E)-3-(2-oxopropyridene)-1-prop-2-in-1-yl-1,3-dihydro-2H-indol-2-one described in Non Patent Document 4 above, and has the following chemical structures, respectively.

[1] = test system: delay of discharging time induced by loperamide in mice; assay: Loperamide induced constipation model (glass bead discharging time); type: in vivo; conditions: Mus musculus, read-out: ED50 (amount which suppresses 50% of the delay of discharging time induced by loperamide)
Experimental: It has been known that loperamide as a μ opioid receptor agonist causes convulsive contraction in intestinal tracts. Thus, a delay in the intestinal transport ability due to loperamide is thought as a constipation IBS model.
Mice (Slc:ddY, five-week old, male) fasted from the previous evening of the experiment. On the day of the experiment, the mice were acclimatized to cages for measurement for 1 hour or more, and 0.3 mg/kg of loperamide was administered subcutaneously. After 30 minutes, a compound to be tested was administered orally, ether anesthesia was applied to the mice immediately thereafter, glass beads having diameter of 3 mm were inserted to 2 cm from anus. The mice were returned to the cages for measurement, and the time from waking to discharging of the glass beads was measured. Furthermore, the compound to be tested was dissolved into 10% DMSO, 10% cremophor, and 80% distillated water.
As a result, it has been recognized that there was a delay in the beads discharging time of the loperamide administration group (vehicle group) in comparison with the loperamide non-administration group (control group).
ED50 values (amount of the compound to be tested which suppresses 50% of the delay of discharging time induced by loperamide) of some of the compounds of the formula (I) are shown in Table 3. In this connection, comparative compound 1 is the same compound as comparative compound 1 in Test Example 4.

[2] = male wistar rats, oral administration, versus control animals
[3] = mice (Slc:ddY, male), 0.3 mg/kg loperamide subcutaneously, compound orally

Row | Compound | melting point [°C] | IC50 (Cytochrome P450(2D6)) [µM] | EC50 (human TRPA1) [µM] | 5-HT release promotion activation value (RIN14B cells) [%] | ED50 (gastric emptying of rats; po) [mg/kg] | ED50 [1] [mg/kg] | ED50 (gastric emptying of rats; [2]) [mg/kg] | ED50 [1, 3] [mg/kg]
1 | O=C(O)/C=C1/C(=O)N(CC2CCC2)c2ccccc21 [Example 24] | – | – | – | – | 0.53 | 0.27 | – | –
2 | CCC(CC)CN1C(=O)/C(=C/C(=O)N2CCOCC2)c2cccc(F)c21 [Example 45, (3E)-1-(2-ethylbutyl)-7-fluoro-3-(2-morpholin-4-yl-2-oxoethylidene)-1,3-dihydro-2H-indol-2-one] | 102 to 104 | 18 | 1.29 | – | 0.57 | – | – | –
3 | CC(C)CN1C(=O)/C(=C/C(=O)O)c2ccccc21 [Example 13] | – | – | – | – | – | – | 0.98 | 0.4
4 | CC(=O)/C=C1/C(=O)N(C)c2ccccc21 [comparative compound 1, (3E)-1-methyl-3-(2-oxopropyridene)-1,3-dihydro-2H-indol-2-one, reference compound] | – | – | – | – | – | – | 2.8 | 2.5

The next lines start with results.

Row | melting point [°C] | IC50 (Cytochrome P450(2D6)) [µM] | EC50 (human TRPA1) [µM] | Compound | 5-HT release promotion activation value (RIN14B cells) [%] | ED50 (gastric emptying of rats; po) [mg/kg] | ED50 [1] [mg/kg] | ED50 (gastric emptying of rats; [2]) [mg/kg] | ED50 [1, 3] [mg/kg]
5 | 137 to 139 | > 20 | 4.4 | O=C(O)/C=C1/C(=O)N(CC2CCCCC2)c2ccccc21 [Example 15, (2E)-[1-(cyclohexylmethyl)-2-oxo-1,2-dihydro-3H-indol-3-ylidene]acetic acid] | 97.4 | – | – | – | –
6 | – | – | 4.63 | CC(C)CN1C(=O)/C(=C/C(=O)O)c2cc(F)ccc21 [Example 27] | 40.0 | – | – | – | –
7 | – | – | 1.2 | COC(=O)c1cccc(CN2C(=O)/C(=C/C(N)=O)c3ccccc32)c1 [Example 4, methyl 3-{[(3E)-3-(2-amino-2-oxoethylidene)-2-oxo-2,3-dihydro-1H-indol-1-yl]methyl}benzoate] | 144.6 | – | – | – | –
8 | 177 to 179 | > 20 | 4.45 | O=C(O)/C=C1/C(=O)N(Cc2ccccc2)c2ccc(F)cc21 [Example 17, (2E)-(1-benzyl-5-fluoro-2-oxo-1,2-dihydro-3H-indol-3-ylidene)acetic acid] | – | – | – | 0.31 | –
9 | 142 to 144 | – | 0.61 | CC(C)CN1C(=O)/C(=C/C(=O)O)c2cccc(Cl)c21 [Example 31, (2E)-(7-chloro-1-isobutyl-2-oxo-1,2-dihydro-3H-indol-3-ylidene)acetic acid] | – | – | – | – | 0.24
10 | 166 to 168 | > 50 | 1.16 | O=C(O)/C=C1/C(=O)N(CC2CCC2)c2c(F)cccc21 [Example 32, (2E)-[1-(cyclobutylmethyl)-7-fluoro-2-oxo-1,2-dihydro-3H-indol-3-ylidene]acetic acid] | – | – | – | 0.21 | –

Reference: patent US20110009379A1, “INDOLINONE COMPOUND” (ASTELLAS PHARMA INC., priority 2008, published 2011)
